Assay results published in patent publication US9901577B2, “Oxoquinazolinyl-butanamide derivatives” (MERCK PATENT GMBH, priority 2013, dated 2018).
pEC50, pIC50: −log10 of the molar value. Where two headings read alike, the source gives them in different places.

Assays:
[1] = system: Tankyrase; experiment: Measurement of cellular inhibition of Tankyrase (Axin2 level in DLD1 cells, Luminex based assay); format: cell-based; details: for pEC50: prior art compounds
Method: (§1) Measurement of Cellular Inhibition of Tankyrase
(§2) Cells of the colon carcinoma cell line DLD1 are plated in 96 well plates with 1.5×10^4 cells per well. Next day, cells are treated with a serial dilution of test compound in seven steps as triplicates with a final DMSO concentration of 0.3%. […] The amount of isolated Axin2 protein is determined in a Luminex^200 machine (Luminex Corporation) according to the manufacturer's instruction by counting 100 events per well. […] As controls cells are treated with solvent alone (neutral control) and with a Tankyrase reference inhibitor IWR-2 (3E-06 M) which refers as control for maximum increase of Axin2. For analysis, the obtained data are normalized against the untreated solvent control and fitted for determination of the EC50 values using the Assay Explorer software (Accelrys).

[2] = molecular target: T1, TNKS1 (Homo sapiens, UniProt O95271); experiment: TNKS1 activity ELISA (autoparsylation assay); format: biochemical; details: for IC50: GST-tagged Tnks-1, read-out: IC50 [M] TNKS1 ELISA
T1 construct: GST-tagged Tnks-1 (1023-1327 aa, prepared in-house); made in house
Method: (§3) Description of the TNKS1 and TNKS2 ELISA Assay
(§4) Biochemical Activity Testing of TNKS 1 and 2: Activity ELISA (Autoparsylation Assay)
(§5) For analysis of autoparsylation activity of TNKS 1 and 2 an activity ELISA iss performed: In the first step GST tagged TNKS is captured on a Glutathione coated plate. Then the activity assay with biotinylated NAD is performed in the absence/presence of the compounds. During the enzymatic reaction GST tagged TNKS transfers biotinylated ADP-ribose to itself from biotinylated NAD as co-substrate. For the detection streptavidin-HRP conjugate is added that binds to the biotinylated TNKS and is thereby captured to the plates. The amount of biotinylated resp. autoparsylated TNKS is detected with a luminescence substrate for HRP. The level of the luminescence signal correlates directly with the amount of autoparsylated TNKS and therefore with activity of TNKS.
(§6) The activity ELISA is performed in 384 well Glutathione coated microtiter plates (Express capture Glutathione coated plate, Biocat, Heidelberg, Germany). The plates are pre-equilibrated with PBS. […] The plates are washed 3 times with PBS-Tween-20. The wells are blocked by incubation at room temperature for 20 minutes with 50 μl blocking buffer (PBS, 0.05% Tween-20, 0.5% BSA). Afterwards the plates are washed 3 times with PBS-Tween-20. […] The reaction is stopped by 3 times washing with PBS-Tween-20. For the detection 50 μl of 20 ng/μl Streptavidin, HRP conjugate (MoBiTec, Göttingen, Germany) in PBS/0.05% Tween-20/0.01% BSA are added and the plates are incubated for 30 minutes at room temperature. After three times washing with PBS-Tween-20 50 μl of SuperSignal ELISA Femto Maximum sensitivity substrate solution (ThermoFisherScientific (Pierce), Bonn, Germany) are added. Following a 1 minute incubation at room temperature luminescence signals are measured with an Envision multimode reader (Perkin Elmer LAS Germany GmbH) at 700 nm. The full value used is the inhibitor-free reaction. […] The inhibitory values (IC50) are determined using either the program Symyx Assay Explorer® or Condosseo® from GeneData.

[3] = molecular target: T2, TNKS2 (Homo sapiens, UniProt Q9H2K2); experiment: TNKS2 activity ELISA (autoparsylation assay); format: biochemical; details: for IC50: GST-tagged Tnks-2, read-out: IC50 [M] TNKS2 ELISA
T2 construct: GST-tagged Tnks-2 (873-1166 aa, prepared in-house); made in house
Method: as §3, §4, §5, §6

[4] = system: β-catenin; details: by increasing the levels of AXIN1 and AXIN2 proteins; cited from earlier work
[5] = system: DLD-1-cancer cells; details: Huang et al., 2009; cited from earlier work
[6] = system: T3, Tankyrase; experiment: Measurement of cellular inhibition of Tankyrase (Axin2 level in DLD1 cells, Luminex based assay); format: cell-based; details: read-out: EC50 [M] TNKS cellular assay; DLD1 cells, Axin2 increase, 24 hours
T3 construct: TNKS cellular assay; other: DLD1 cells, Axin2 increase, 24 hours
Method: as §1, §2

[7] = molecular target: T4, PARP-1 (Homo sapiens, UniProt P09874); experiment: PARP-1 autoparsylation assay (HTRF); format: biochemical; details: His-tagged Parp-1, autoparsylation
T4 construct: purchased Enzo Life Sciences GmbH, Lörrach, Germany

[8] = prior art compounds, read-out: IC50 (TNKS1)

T2 sequence (Q9H2K2 873-1166): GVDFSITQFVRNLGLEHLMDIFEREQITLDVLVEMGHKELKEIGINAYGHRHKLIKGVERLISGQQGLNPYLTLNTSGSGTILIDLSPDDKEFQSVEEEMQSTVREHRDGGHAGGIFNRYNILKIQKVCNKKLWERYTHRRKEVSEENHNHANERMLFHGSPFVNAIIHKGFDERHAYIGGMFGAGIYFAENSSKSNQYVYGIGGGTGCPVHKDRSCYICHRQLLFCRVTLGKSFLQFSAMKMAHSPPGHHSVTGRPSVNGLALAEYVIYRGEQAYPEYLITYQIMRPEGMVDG
T1 sequence (O95271 1023-1327): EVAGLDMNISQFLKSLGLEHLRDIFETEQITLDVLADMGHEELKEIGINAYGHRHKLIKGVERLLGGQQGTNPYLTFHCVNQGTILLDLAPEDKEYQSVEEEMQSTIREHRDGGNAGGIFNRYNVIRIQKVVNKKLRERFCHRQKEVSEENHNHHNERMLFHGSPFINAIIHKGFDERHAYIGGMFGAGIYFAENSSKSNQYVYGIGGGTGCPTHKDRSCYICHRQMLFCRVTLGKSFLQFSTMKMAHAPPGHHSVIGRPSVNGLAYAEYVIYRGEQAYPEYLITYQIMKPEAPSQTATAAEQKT
T4 sequence (P09874 whole entry): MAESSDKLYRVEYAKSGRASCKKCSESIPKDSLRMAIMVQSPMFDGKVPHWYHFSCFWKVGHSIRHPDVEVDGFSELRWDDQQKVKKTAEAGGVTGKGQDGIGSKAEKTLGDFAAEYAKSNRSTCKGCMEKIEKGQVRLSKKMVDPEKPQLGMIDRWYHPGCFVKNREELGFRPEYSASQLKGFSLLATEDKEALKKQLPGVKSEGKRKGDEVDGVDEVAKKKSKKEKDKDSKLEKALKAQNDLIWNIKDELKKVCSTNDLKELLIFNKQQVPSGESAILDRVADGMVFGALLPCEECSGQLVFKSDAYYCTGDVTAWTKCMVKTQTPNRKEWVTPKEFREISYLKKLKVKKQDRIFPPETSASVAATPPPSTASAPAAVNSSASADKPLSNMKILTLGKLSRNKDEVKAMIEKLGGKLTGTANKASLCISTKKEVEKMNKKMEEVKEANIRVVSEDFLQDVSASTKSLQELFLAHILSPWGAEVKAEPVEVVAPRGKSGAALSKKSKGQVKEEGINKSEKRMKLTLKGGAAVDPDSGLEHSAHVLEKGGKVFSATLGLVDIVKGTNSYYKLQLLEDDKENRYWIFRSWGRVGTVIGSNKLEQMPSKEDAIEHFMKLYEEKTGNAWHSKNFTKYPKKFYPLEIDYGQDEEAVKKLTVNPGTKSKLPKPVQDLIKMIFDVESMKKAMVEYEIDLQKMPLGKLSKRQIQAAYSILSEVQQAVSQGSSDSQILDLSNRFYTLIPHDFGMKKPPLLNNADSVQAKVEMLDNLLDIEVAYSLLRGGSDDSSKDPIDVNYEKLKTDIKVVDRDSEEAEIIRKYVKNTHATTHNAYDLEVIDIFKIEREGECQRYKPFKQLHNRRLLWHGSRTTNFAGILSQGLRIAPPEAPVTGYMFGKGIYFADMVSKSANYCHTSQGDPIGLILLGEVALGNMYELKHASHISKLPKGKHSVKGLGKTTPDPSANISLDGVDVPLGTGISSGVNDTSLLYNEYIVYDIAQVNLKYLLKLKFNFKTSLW

Compound	EC50 [6] [M]	IC50 [3] [M]	IC50 [7] [nM]	IC50 [2] [M]	also measured
COc1ccccc1NC(=O)c1ccc(NC(=O)CCc2nc3ccccc3c(=O)[nH]2)cc1 [reference compound]					pEC50 [1]: 6.49; pIC50 [2, 8]: 8.13
O=c1[nH]c(-c2ccc3c(c2)OCO3)nc2ccccc12 [reference compound]					cellular assay: effect ([1]; at 30 μM, prior art compound): no effect; pIC50 ([3]; prior art compounds, read-out: IC50 (TNKS2)): 6.22; pIC50 [2, 8]: 6.23
Oc1nc(-c2ccc(C(F)(F)F)cc2)nc2c1CSCC2 [XAV939]					Wnt-stimulated accumulation of β-catenin [4]: blocked Wnt-stimulated accumulation of β-catenin; growth of DLD-1-cancer cells [5]: inhibits growth
COCCn1cc(-c2ccc(C(=O)C3CCN(C(=O)CCCc4nc5ccccc5c(=O)[nH]4)CC3)cc2)cn1 [Compound A11, 2-[4-(4-{4-[1-(2-methoxy-ethyl)-1H-pyrazol-4-yl]-benzoyl}-piperidin-1-yl)-4-oxo-butyl]-3H-quinazolin-4-one]	7.3e-09	1.2e-10	300	5.8e-11	
COc1ccc(C(=O)C2CCN(C(=O)CCCc3nc4ccccc4c(=O)[nH]3)CC2)cc1 [Compound A1, 2-{4-[4-(4-methoxy-benzoyl)-piperidin-1-yl]-4-oxo-butyl}-3H-quinazolin-4-one]	1.6e-09		1400		pIC50 [3]: 9.96; pIC50 [2]: 9.64
Nc1ncc(C2CCN(C(=O)CCCc3nc4c(F)cccc4c(=O)[nH]3)CC2)cc1-c1ncccn1 [Compound A35, 2-[4-(6-Amino-5-pyrimidin-2-yl-3′,4′,5′,6′-tetrahydro-2′H-[3,4]bipyridinyl-1′-yl)-4-oxo-butyl]-8-fluoro-3H-quinazolin-4-one]	1.8e-09	1.6e-10	1400	4.9e-10	
COc1ccc(C(=O)C2CCN(C(=O)CCCc3nc4ccc(F)cc4c(=O)[nH]3)CC2)cc1C [Compound A24, 6-Fluoro-2-{4-[4-(4-methoxy-3-methyl-benzoyl)-piperidin-1-yl]-4-oxo-butyl}-3H-quinazolin-4-one]	1e-09	1.4e-10	1000	1.6e-10	
COc1cccc(C(=O)C2CCN(C(=O)CCCc3nc4ccccc4c(=O)[nH]3)CC2)c1 [Compound A9, 2-{4-[4-(3-methoxy-benzoyl)-piperidin-1-yl]-4-oxo-butyl}-3H-quinazolin-4-one]	1.9e-08	3.3e-10	740	1.9e-10	
COc1ccc(C(=O)C2CCN(C(=O)CCCc3nc4c(C)cc(F)cc4c(=O)[nH]3)CC2)cc1C [Compound A15, 6-fluoro-2-[4-[4-(4-methoxy-3-methyl-benzoyl)-1-piperidyl]-4-oxo-butyl]-8-methyl-3H-quinazolin-4-one]	1.4e-09	7.4e-11	64	8.8e-11	
N#Cc1cc(C2CCN(C(=O)CCCc3nc4ccccc4c(=O)[nH]3)CC2)cnc1N [Compound A36, 6-Amino-1′-[4-(4-oxo-3,4-dihydro-quinazolin-2-yl)-butyryl]-1′,2′,3′,4′,5′,6-hexahydro-[3,4]bipyridinyl-5-carbonitrile]	2e-08		1100		pIC50 [3]: 8.96; pIC50 [2]: 8.72
Cn1cc(C(=O)C2CCN(C(=O)CCCc3nc4ccccc4c(=O)[nH]3)CC2)cn1 [Compound A41, 2-{4-[4-(1-Methyl-1H-pyrazole-4-carbonyl)-piperidin-1-yl]-4-oxo-butyl}-3H-quinazolin-4-one]	9e-09	3.3e-10	2100	5.8e-10	
COc1ccc(C(=O)C2CCN(CC(=O)N(Cc3nc4c(c(=O)[nH]3)COCC4)CC3CC3)CC2)cc1 [reference compound]					pEC50 [1]: 7.46; pIC50 [2, 8]: 8.70
